“Also recorded” adds a separate entry of the source. Where a SMILES comes first, the peptide text is derived from it.
How the values were obtained:
[1] = tested on: M. smegmatis mc^2 155; test: Antibacterial activity, microscale optical density assay (MODA) / microporous dilution; type: cell-based, Mycobacterium smegmatis; parameters: key: -: no inhibitory activity; +: Inhibit the growth of less than 10% amount of the initial bacteria; ++: Inhibit the growth of less than 50% amount of the initial bacteria; +++: Inhibit the growth of initial bacteria completely; details: M. smegmatis mc2155, medium 7H9
Procedure: (§1) In this paper, the microporous dilution method was used to detect the antibacterial spectrum of pantocin wh-1 against Gram-negative and -positive bacteria. […] The time kill studies were determined over 8 h with M. smegmatis mc^2 155 being exposed to 0.5, 1, 2, or 4 × MIC of pantocin wh-1. […] At 2 × MIC and 4 × MIC, pantocin wh-1 caused bacterial eradication was completed approximately after 4 h.
(§2) The antibacterial activity of the pantocin wh-1 was detected by the microscale optical density assay (MODA) method. Briefly, 90 μL of the dilutions of pantocin wh-1, 100 μL 2 × 7H9 medium, and 10 μL of a log phase indicator strain were co-incubated in the 96-well plate at 37 °C for 48 h. For control groups, 90 μL of the dilutions of pantocin wh-1 were replaced by an equal volume of sterile water. After incubation, the 96 well microplate was measured by a microplate reader at a 600 nm wavelength (Biotek synergyH1, Biotek, Winooski, VT, USA). The amount of pantocin wh-1 produced by P. dispersa W18 was determined using two fold dilutions. […] The results were expressed in AU/mL. The MIC was defined as the last dilution of pantocin wh-1 sufficient to prevent indicator strain growth in vitro.

[2] = tested on: S. aureus N315; test: Antimicrobial spectrum, microporous dilution method; type: cell-based; parameters: key: -: no inhibitory activity; +: Inhibit the growth of less than 10% amount of the initial bacteria; ++: Inhibit the growth of less than 50% amount of the initial bacteria; +++: Inhibit the growth of initial bacteria completely; details: S. aureus N315, medium LB
[3] = tested on: trypsin; test: Effect of enzymes on antibacterial activity: trypsin; type: in vitro ADME
Text: (§3) Furthermore, the antibacterial activity of pantocin wh-1 also retained nearly 100% of the initial activity within a broad pH range (pH 2–12).
(§4) The effect of various enzymes, pH, and temperature on pantocin wh-1 activity was detected as described by J.-M. Chobert et al. with a slight modification. Proteinase K, trypsin, catalase, lysozyme, DNAse, and RNAse were used to test the antibacterial activity of pantocinwh-1. To analyze the effect of different pH values on the antibacterial activity of pantocin wh-1, the sample of pantocin wh-1 was exposed to buffer with a pH value of 2–12 for 1 h at 25 °C. The effect of temperature on the anti-mycobacterial activity of pantocin wh-1 was determined by incubating pantocin wh-1 at 50 °C and 100 °C for 60 min, as well as at 121 °C for 15 min, and then detecting the bactericidal activity against M. smegmatis mc^2 155.

[4] = tested on: lysozyme; test: Effect of enzymes on antibacterial activity: lysozyme; type: in vitro ADME
Text: as §3, §4

[5] = tested on: pepsin
[6] = tested on: L .monocytogenes; test: Antimicrobial spectrum, microporous dilution method; type: cell-based, Listeria monocytogenes
Procedure: as §1, §2

[7] = target: proteinase K (Parengyodontium album, UniProt P06873); test: Effect of enzymes on antibacterial activity: proteinase K; type: in vitro ADME
Text: as §3, §4

[8] = Effect of pH on antibacterial activity; type: physicochemical; details: for Residual activity: compared with antimicrobial activity before the treatment
Text: as §3, §4

[9] = tested on: S. aureus 21A; test: Antimicrobial spectrum, microporous dilution method; type: cell-based; parameters: key: -: no inhibitory activity; +: Inhibit the growth of less than 10% amount of the initial bacteria; ++: Inhibit the growth of less than 50% amount of the initial bacteria; +++: Inhibit the growth of initial bacteria completely; details: medium LB
Procedure: as §1, §2

[10] = tested on: S. pyogenes; test: as above; type: cell-based; parameters: key: -: no inhibitory activity; +: Inhibit the growth of less than 10% amount of the initial bacteria; ++: Inhibit the growth of less than 50% amount of the initial bacteria; +++: Inhibit the growth of initial bacteria completely; details: medium BHI
Procedure: as §1, §2

[11] = tested on: P. aeruginosa; test: as above; type: cell-based; parameters: key: -: no inhibitory activity; +: Inhibit the growth of less than 10% amount of the initial bacteria; ++: Inhibit the growth of less than 50% amount of the initial bacteria; +++: Inhibit the growth of initial bacteria completely; details: medium LB
Procedure: as §1, §2

[12] = tested on: S. aureus B30; test: as above; type: cell-based; parameters: key: -: no inhibitory activity; +: Inhibit the growth of less than 10% amount of the initial bacteria; ++: Inhibit the growth of less than 50% amount of the initial bacteria; +++: Inhibit the growth of initial bacteria completely; details: S. aureus B30, medium LB
Procedure: as §1, §2

[13] = tested on: Feces Enterococcus; test: as above; type: cell-based; parameters: key: -: no inhibitory activity; +: Inhibit the growth of less than 10% amount of the initial bacteria; ++: Inhibit the growth of less than 50% amount of the initial bacteria; +++: Inhibit the growth of initial bacteria completely; details: medium BHI
Procedure: as §1, §2

[14] = tested on: M. smegmatis mc^2 155; test: Time kill study; type: cell-based, Mycobacterium smegmatis
Procedure: as §1
For detection of the time kill study, 100 μL of the indicator strain in exponential phase were added to tubes containing 5 mL of the modified 7H9 medium with pantocin wh-1 at 0.5, 1, 2, and 4 × MIC. No pantocin wh-1 was added in the control tube, then incubated at 37 °C for 8 h. At the end of each time period, tenfold serial dilutions were prepared with 0.5 mM phosphate buffer, and 100 μL cultures were plated in triplicate onto the 7H10 plates. For anti-tuberculosis activities in vivo, an auto-luminescent strain of M. tuberculosis H37Ra (AlRa) described by Tianyu Zhang was used to assess the efficacy of pantocin wh-1 in a mouse model. The relative light unit (RLU) count was determined to parallel CFU counts during the active phase of bacterial growth. AlRa with OD600 of 0.1 was injected into female BALB/c mice by tail vein. The day after injection (Day 0), RLU values were detected for 6 days in triplicate.

[15] = tested on: M. tuberculosis H37Ra; type: cell-based, Mycobacterium tuberculosis; parameters: key: -: no inhibitory activity; +: Inhibit the growth of less than 10% amount of the initial bacteria; ++: Inhibit the growth of less than 50% amount of the initial bacteria; +++: Inhibit the growth of initial bacteria completely; details: M. tuberculosis Ra, medium 7H9

Sequence of proteinase K (P06873 106-384): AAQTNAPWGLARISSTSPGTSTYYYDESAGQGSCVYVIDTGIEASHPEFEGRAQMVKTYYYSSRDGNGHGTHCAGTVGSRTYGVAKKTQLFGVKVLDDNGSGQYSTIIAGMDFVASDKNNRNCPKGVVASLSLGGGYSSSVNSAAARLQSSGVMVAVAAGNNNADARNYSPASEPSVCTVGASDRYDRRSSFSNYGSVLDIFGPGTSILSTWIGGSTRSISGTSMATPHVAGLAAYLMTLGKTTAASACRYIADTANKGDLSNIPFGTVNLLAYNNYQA

CSCC[C@@H]1NC(=O)[C@H](C(C)C)NC(=O)[C@H](Cc2c[nH]c3ccccc23)NC(=O)[C@H](C(C)C)NC(=O)[C@H](C)NC(=O)[C@H](CS)NC(=O)[C@H](CC(N)=O)NC(=O)[C@H](Cc2ccccc2)NC(=O)CNC(=O)[C@H](Cc2ccc(O)cc2)NC(=O)CNC(=O)[C@H](Cc2ccccc2)NC(=O)[C@H](C(C)C)NC(=O)[C@H](Cc2ccc(O)cc2)NC(=O)[C@H](CS)NC(=O)[C@H](Cc2c[nH]c3ccccc23)NC1=O [pantocin wh-1] (cyclo(AVWVMWCYVFGYGFNC))
Inhibition activity [1]: +++ | Inhibition activity [2]: - | inhibitory activity after trypsin ([3]; trypsin): not completely inactivated; also recorded: partial sensitivity | Residual activity ([3]; trypsin treatment, compared with antimicrobial activity before the treatment): 27% | antibacterial activity after lysozyme ([4]; lysozyme): insensitive | Residual activity ([4]; lysozyme treatment, compared with antimicrobial activity before the treatment): 100% | activity after pepsin [5]: not completely inactivated | Inhibition activity ([6]; L .monocytogenes, medium BHI): + (Inhibit the growth of less than 10% amount of the initial bacteria) | inhibitory activity ([6]; Listeria monocytogenes): partial inhibitory activity | inhibitory activity after proteinase K [7]: inactivated completely | retained initial antibacterial activity ([8]; broad pH range (pH 2–12)): ~100% | Residual activity ([8]; pH2-6, buffer 1 h at 25 °C): 90% | Residual activity ([8]; pH6-8, buffer 1 h at 25 °C): 100% | Residual activity ([8]; pH8-12, buffer 1 h at 25 °C): 85% | Inhibition activity [9]: - | Inhibition activity [10]: - | Inhibition activity [11]: - | Inhibition activity [12]: - | Inhibition activity [13]: - | decline in colony forming units (CFU) ([14]; 0.5 and 1 × MIC, within the first 2 h, followed by bacterial regeneration to near the initial concentration): > 3 log | time to completed bacterial eradication ([14]; 2 × MIC and 4 × MIC): ~4 h | Inhibition activity [15]: +++

— PMC7036871, “Identification and Characterization of pantocin wh-1, a Novel Cyclic Polypeptide Produced by Pantoea dispersa W18” (Molecules, 2020)
